Assay results reported in ChEMBL document CHEMBL5647694, “Novel orally bioavailable EZH1/2 dual inhibitors with greater antitumor efficacy than an EZH2 selective inhibitor” (Cancer Sci, 2017).

How the values were obtained:
[1] = target: Protein kinase C beta type (Homo sapiens) (UniProt P05771); assay: Inhibition of N-terminal GST-fused human full length PKC-beta1 (1 to 671 residues ) expressed in baculovirus expression system using PKC peptide as substrate at 1 uM in presence of ATP by Mobility shift assay
[2] = target: Homeodomain-interacting protein kinase 3 (Homo sapiens) (UniProt Q9H422); assay: Inhibition of N-terminal GST-fused human HIPK3 catalytic domain (161 to 562 residues) expressed in baculovirus expression system using DYRKtide-F as substrate at 1 uM in presence of ATP by Mobility shift assay
[3] = target: Proto-oncogene tyrosine-protein kinase receptor Ret (Homo sapiens) (UniProt P07949); assay: Inhibition of N-terminal GST-tagged human RET cytoplasmic domain (658 to 1114 residues) expressed in baculovirus-infected Sf21 cells using CSKtide as substrate at 1 uM in presence of ATP by Mobility shift assay
[4] = Toxicity in Crl:CD Sprague-Dawley rat assessed as hematocrit level in blood at 100 mg/kg, po administered daily for 14 days (reference value: 41.2 +/-[…]); type: organism-based; conditions: in vivo, 336 h, time 14 day
[5] = Toxicity in Crl:CD Sprague-Dawley rat assessed as sodium level in blood at 100 mg/kg, po administered daily for 14 days (reference value: 141+/-0.82 mEq/L); type: organism-based; conditions: in vivo, 336 h, time 14 day
[6] = Toxicity in Crl:CD Sprague-Dawley rat assessed as monocyte count in blood at 100 mg/kg, po administered daily for 14 days (reference value: 0.203+/-0.09 10^3/uL); type: organism-based; conditions: in vivo, 336 h, time 14 day
[7] = Toxicity in Crl:CD Sprague-Dawley rat assessed as decrease in food consumption at 100 mg/kg, po administered daily for 14 days; type: organism-based; conditions: in vivo, 336 h, time 14 day
NCI-H1092 = assay: Antitumor activity against human NCI-H1092 cells assessed as cell growth inhibition treated for 10 to 15 days; type: functional; conditions: time 10-15 day
MCF7 = assay: Antitumor activity against human MCF7 cells assessed as cell growth inhibition treated for 10 to 15 days; type: functional; conditions: time 10-15 day
[8] = target: Protein arginine N-methyltransferase 8 (Homo sapiens, UniProt Q9NR22); assay: Inhibition of human PRMT8 using Histone H4 and [3H]SAM as substrate incubated for 30 mins to 1 hr by HotSpot kinase assay
PC-3 = assay: Antitumor activity against human PC-3 cells assessed as cell growth inhibition treated for 10 to 15 days; type: functional; conditions: time 10-15 day
HCC1937 = assay: Antitumor activity against human HCC1937 cells assessed as cell growth inhibition treated for 10 to 15 days; type: functional; conditions: time 10-15 day
OVCAR-3 = assay: Antitumor activity against human OVCAR-3 cells assessed as cell growth inhibition treated for 10 to 15 days; type: functional; conditions: time 10-15 day
MC-CAR = assay: Antitumor activity against human MC-CAR cells assessed as cell growth inhibition treated for 10 to 15 days; type: functional; conditions: time 10-15 day
MOLT-4 = assay: Antitumor activity against human MOLT-4 cells assessed as cell growth inhibition treated for 10 to 15 days; type: functional; conditions: time 10-15 day
TCC-SUP = assay: Antitumor activity against human TCC-SUP cells assessed as cell growth inhibition treated for 10 to 15 days; type: functional; conditions: time 10-15 day
[9] = tested on: KATO III stomach cancer cell line; assay: Antitumor activity against human KATO III stomach cancer cell line assessed as cell growth inhibition treated for 10 to 15 days; type: functional; conditions: time 10-15 day
TALL-1 = assay: Antitumor activity against human TALL-1 cells assessed as cell growth inhibition treated for 10 to 15 days; type: functional; conditions: time 10-15 day
[10] = target: DNA (cytosine-5)-methyltransferase 1 (Homo sapiens, UniProt P26358); assay: Inhibition of human DNMT1 using Poly (dl-dC) and [3H]SAM as substrate incubated for 30 mins to 1 hr by HotSpot kinase assay
[11] = target: Histone-lysine N-methyltransferase 2D (Homo sapiens, UniProt O14686); assay: Inhibition of human MLL2 using Core Histone and [3H]SAM as substrate incubated for 30 mins to 1 hr by HotSpot kinase assay
[12] = Antitumor activity against human NCI-H841 cells assessed as cell growth inhibition treated for 10 to 15 days; type: functional; conditions: time 10-15 day
[13] = Antitumor activity against human PCM6 cells assessed as cell growth inhibition treated for 10 to 15 days; type: functional; conditions: time 10-15 day
ZR-75-30 = assay: Antitumor activity against human ZR-75-30 cells assessed as cell growth inhibition treated for 10 to 15 days; type: functional; conditions: time 10-15 day
SNU1 = assay: Antitumor activity against human SNU1 cells assessed as cell growth inhibition treated for 10 to 15 days; type: functional; conditions: time 10-15 day
HT = assay: Antitumor activity against human HT cells assessed as cell growth inhibition treated for 10 to 15 days; type: functional; conditions: time 10-15 day
SUP-B15 = assay: Antitumor activity against human SUP-B15 cells assessed as cell growth inhibition treated for 10 to 15 days; type: functional; conditions: time 10-15 day
A-427 = assay: Antitumor activity against human A-427 cells assessed as cell growth inhibition treated for 10 to 15 days; type: functional; conditions: time 10-15 day
SNU-5 = assay: Antitumor activity against human SNU-5 cells assessed as cell growth inhibition treated for 10 to 15 days; type: functional; conditions: time 10-15 day
MKN-1 = assay: Antitumor activity against human MKN-1 cells assessed as cell growth inhibition treated for 10 to 15 days; type: functional; conditions: time 10-15 day
DMS-114 = assay: Antitumor activity against human DMS-114 cells assessed as cell growth inhibition treated for 10 to 15 days; type: functional; conditions: time 10-15 day
ZR-75-1 = assay: Antitumor activity against human ZR-75-1 cells assessed as cell growth inhibition treated for 10 to 15 days; type: functional; conditions: time 10-15 day
NCI-H520 = assay: Antitumor activity against human NCI-H520 cells assessed as cell growth inhibition treated for 10 to 15 days; type: functional; conditions: time 10-15 day
[14] = Antitumor activity against human HCC1500 cells assessed as cell growth inhibition treated for 10 to 15 days; type: functional; conditions: time 10-15 day
[15] = target: MAP kinase-activated protein kinase 3 (Homo sapiens) (UniProt Q16644); assay: Inhibition of N-terminal GST-fused full length human MAPKAPK3 (1 to 382 residues) expressed in baculovirus expression system using GS peptide as substrate at 1 uM in presence of ATP by Mobility shift assay
CWR22R = assay: Antitumor activity against human 22Rv1 cells assessed as cell growth inhibition treated for 10 to 15 days; type: functional; conditions: time 10-15 day
HCC1143 = assay: Antitumor activity against human HCC1143 cells assessed as cell growth inhibition treated for 10 to 15 days; type: functional; conditions: time 10-15 day
[16] = Antitumor activity against human MJ cells assessed as cell growth inhibition treated for 10 to 15 days; type: functional; conditions: time 10-15 day
Caov-3 cell line = assay: Antitumor activity against human Caov-3 cell line assessed as cell growth inhibition treated for 10 to 15 days; type: functional; conditions: time 10-15 day
[17] = target: Eukaryotic translation initiation factor 2-alpha kinase 3 (Homo sapiens) (UniProt Q9NZJ5); assay: Inhibition of N-terminal GST-fused human PEK catalytic domain (536 to 1116 residues) expressed in Escherichia coli expression system using SRPKtide as substrate at 1 uM in presence of ATP by Mobility shift assay
[18] = Antitumor activity against human HCC202 cells assessed as cell growth inhibition treated for 10 to 15 days; type: functional; conditions: time 10-15 day
MDA-MB-415 = assay: Antitumor activity against human MDA-MB-415 cells assessed as cell growth inhibition treated for 10 to 15 days; type: functional; conditions: time 10-15 day

Chain of Proto-oncogene tyrosine-protein kinase receptor Ret (Homo sapiens) (P07949 whole entry, the tested form may be a part): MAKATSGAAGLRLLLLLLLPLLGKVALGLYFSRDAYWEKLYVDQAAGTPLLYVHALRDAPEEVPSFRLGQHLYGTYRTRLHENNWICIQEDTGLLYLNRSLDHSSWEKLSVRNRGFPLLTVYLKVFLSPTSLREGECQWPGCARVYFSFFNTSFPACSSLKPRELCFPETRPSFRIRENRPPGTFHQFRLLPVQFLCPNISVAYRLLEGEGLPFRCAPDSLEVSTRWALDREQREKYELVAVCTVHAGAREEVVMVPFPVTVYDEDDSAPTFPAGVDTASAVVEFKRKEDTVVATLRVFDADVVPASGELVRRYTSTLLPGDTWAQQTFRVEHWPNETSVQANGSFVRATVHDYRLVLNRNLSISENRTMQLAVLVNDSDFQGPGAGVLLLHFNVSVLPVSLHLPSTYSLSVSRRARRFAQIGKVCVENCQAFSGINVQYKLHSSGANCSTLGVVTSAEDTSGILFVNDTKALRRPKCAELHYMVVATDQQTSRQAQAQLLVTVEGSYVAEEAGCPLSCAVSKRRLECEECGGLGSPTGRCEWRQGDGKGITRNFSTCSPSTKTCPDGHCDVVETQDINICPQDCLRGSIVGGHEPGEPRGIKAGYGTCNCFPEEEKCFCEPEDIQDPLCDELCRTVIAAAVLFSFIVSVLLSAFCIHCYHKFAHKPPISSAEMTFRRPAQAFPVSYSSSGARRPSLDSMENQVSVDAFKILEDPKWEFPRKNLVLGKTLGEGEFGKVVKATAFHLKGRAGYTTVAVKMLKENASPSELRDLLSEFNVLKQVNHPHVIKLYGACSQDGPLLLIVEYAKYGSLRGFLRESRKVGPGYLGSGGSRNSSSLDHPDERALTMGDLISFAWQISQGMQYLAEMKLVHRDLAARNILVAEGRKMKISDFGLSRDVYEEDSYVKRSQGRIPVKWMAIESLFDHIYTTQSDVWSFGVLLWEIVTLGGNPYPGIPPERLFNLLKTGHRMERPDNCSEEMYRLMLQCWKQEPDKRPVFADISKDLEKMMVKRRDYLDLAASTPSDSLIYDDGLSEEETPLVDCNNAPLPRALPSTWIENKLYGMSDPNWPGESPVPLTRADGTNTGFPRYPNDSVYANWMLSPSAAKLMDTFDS
Chain of Homeodomain-interacting protein kinase 3 (Homo sapiens) (Q9H422 whole entry, looked up, the tested form may be a part): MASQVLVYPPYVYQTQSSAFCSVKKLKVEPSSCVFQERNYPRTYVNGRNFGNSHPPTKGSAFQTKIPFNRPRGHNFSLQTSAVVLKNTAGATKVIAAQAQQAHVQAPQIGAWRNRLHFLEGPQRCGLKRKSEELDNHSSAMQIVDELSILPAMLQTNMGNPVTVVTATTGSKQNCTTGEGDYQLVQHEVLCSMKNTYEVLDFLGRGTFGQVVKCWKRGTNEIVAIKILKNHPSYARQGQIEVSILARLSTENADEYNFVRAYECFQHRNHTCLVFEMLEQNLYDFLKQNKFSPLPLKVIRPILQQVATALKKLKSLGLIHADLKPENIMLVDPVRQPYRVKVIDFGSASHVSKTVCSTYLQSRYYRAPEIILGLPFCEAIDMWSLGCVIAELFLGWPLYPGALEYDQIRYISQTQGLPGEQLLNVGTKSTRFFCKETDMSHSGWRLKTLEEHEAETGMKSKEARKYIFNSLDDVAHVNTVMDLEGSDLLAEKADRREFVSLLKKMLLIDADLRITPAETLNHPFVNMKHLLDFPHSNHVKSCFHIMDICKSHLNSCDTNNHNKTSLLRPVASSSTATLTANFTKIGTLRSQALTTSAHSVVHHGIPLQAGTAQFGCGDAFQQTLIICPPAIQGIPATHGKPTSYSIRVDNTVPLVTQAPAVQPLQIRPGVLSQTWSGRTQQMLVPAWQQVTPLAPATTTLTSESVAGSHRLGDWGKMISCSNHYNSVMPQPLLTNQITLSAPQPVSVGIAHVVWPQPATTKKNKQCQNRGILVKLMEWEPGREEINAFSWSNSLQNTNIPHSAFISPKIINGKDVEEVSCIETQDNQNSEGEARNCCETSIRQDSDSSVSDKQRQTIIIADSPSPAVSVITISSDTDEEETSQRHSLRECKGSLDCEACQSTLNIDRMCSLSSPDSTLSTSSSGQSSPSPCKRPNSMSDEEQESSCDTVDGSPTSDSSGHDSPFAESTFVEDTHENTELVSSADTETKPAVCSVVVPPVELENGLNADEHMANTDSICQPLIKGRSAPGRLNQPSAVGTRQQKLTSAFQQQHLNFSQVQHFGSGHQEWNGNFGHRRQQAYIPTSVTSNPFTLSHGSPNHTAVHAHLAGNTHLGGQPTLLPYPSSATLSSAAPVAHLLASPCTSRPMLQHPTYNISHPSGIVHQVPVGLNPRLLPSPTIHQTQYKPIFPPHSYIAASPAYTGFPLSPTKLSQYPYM
Chain of Protein kinase C beta type (Homo sapiens) (P05771 2-671 limits assumed): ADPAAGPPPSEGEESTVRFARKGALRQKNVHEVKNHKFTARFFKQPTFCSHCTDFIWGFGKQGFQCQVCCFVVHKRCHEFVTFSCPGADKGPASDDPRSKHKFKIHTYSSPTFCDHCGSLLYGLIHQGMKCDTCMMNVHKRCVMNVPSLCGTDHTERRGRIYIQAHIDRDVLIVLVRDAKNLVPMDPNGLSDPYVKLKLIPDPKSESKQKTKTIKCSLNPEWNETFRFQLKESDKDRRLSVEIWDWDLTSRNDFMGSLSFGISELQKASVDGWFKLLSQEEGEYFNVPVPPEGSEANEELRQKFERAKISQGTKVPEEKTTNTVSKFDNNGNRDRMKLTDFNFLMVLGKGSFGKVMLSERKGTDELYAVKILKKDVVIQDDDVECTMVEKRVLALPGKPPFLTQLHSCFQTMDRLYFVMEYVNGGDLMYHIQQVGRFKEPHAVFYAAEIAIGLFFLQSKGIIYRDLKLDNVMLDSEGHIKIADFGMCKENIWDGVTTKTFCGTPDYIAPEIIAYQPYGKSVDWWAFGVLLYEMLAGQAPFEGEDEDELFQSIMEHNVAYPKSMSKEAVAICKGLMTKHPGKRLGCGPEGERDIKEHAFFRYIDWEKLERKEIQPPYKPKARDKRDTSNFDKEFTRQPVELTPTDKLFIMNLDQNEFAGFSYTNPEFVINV
Chain of Protein arginine N-methyltransferase 8 (Q9NR22 whole entry): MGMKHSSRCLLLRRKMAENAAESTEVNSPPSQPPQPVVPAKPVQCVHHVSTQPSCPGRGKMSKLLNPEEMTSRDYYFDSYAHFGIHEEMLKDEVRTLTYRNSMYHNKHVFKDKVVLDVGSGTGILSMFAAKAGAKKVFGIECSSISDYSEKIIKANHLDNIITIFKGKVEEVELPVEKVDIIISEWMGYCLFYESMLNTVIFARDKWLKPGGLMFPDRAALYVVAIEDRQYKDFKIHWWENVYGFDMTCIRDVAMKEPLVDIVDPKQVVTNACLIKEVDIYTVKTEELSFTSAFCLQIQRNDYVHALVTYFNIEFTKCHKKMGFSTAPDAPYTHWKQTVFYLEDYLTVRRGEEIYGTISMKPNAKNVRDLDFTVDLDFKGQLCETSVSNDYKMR
Chain of DNA (cytosine-5)-methyltransferase 1 (P26358 whole entry): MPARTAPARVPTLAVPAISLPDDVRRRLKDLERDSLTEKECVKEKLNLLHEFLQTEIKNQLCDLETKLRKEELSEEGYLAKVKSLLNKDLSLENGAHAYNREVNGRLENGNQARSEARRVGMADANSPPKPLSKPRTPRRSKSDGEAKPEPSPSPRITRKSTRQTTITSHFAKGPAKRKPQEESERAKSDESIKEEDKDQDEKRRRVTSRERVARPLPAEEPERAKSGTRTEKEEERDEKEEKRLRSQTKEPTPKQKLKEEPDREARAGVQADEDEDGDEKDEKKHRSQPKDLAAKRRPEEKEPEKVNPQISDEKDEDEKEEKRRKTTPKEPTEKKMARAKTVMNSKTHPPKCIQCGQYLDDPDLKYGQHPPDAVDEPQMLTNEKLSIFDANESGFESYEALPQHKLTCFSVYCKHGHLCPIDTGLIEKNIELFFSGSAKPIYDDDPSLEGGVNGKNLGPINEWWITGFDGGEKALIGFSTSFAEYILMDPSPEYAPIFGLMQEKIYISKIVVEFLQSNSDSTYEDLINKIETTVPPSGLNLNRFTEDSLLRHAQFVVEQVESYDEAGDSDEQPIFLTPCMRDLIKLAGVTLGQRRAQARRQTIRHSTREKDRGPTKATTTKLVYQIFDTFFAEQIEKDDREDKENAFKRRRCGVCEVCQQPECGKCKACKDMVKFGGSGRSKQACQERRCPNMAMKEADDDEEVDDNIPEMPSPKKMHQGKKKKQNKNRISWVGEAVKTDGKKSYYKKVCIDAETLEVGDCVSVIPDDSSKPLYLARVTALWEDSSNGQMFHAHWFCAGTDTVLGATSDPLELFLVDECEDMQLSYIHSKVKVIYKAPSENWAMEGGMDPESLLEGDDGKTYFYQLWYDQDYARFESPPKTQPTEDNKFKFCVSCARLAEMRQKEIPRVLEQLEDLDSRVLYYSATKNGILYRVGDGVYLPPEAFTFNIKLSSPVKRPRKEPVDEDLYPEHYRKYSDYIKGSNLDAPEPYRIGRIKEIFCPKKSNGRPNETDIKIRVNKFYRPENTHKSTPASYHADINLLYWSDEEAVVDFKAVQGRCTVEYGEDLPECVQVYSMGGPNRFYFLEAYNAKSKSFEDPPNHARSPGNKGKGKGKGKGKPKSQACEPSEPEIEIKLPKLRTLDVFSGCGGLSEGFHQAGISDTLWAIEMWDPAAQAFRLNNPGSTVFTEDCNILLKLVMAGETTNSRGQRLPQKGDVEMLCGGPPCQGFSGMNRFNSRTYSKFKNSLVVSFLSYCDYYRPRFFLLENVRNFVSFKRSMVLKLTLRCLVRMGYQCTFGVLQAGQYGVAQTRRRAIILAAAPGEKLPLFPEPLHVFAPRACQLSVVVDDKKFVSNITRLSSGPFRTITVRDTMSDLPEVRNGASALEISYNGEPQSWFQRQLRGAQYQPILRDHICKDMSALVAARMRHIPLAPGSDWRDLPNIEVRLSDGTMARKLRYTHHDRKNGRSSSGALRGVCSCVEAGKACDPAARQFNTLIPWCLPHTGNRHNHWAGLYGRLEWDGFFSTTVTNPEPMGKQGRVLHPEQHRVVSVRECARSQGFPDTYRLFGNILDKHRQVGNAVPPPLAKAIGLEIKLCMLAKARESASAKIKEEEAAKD

Cc1cc(C)c(CNC(=O)c2cc(Br)c3c(c2C)O[C@@](C)([C@H]2CC[C@H](N(C)C)CC2)O3)c(=O)[nH]1
inhibition [1]: 6.9%
inhibition [2]: -1.8%
inhibition [3]: -2.3%
Activity [4]: 40.1%
Activity [5]: 142 mEq/L
Activity [6]: 0.105 10^3 /uL
Activity [7]: Toxic

Cc1cc(C)c(CNC(=O)c2cc(Cl)c3c(c2C)O[C@@](C)([C@H]2CC[C@H](N(C)C)CC2)O3)c(=O)[nH]1 [VALEMETOSTAT]
GI50 (NCI-H1092): > 1000 nM
GI50 (MCF7): > 1000 nM
IC50 [8]: 100000 nM
GI50 (PC-3): > 1000 nM
GI50 (HCC1937): > 1000 nM
GI50 (OVCAR-3): > 1000 nM
GI50 (MC-CAR): 31.3 nM
GI50 (MOLT-4): 120 nM
GI50 (TCC-SUP): > 1000 nM
inhibition [1]: 1.8%
GI50 [9]: 18.2 nM
GI50 (TALL-1): > 1000 nM
IC50 [10]: 100000 nM
inhibition [2]: 1.4%
IC50 [11]: > 100000 nM
GI50 [12]: 134 nM
GI50 [13]: 32.5 nM
GI50 (ZR-75-30): > 1000 nM
GI50 (SNU1): > 1000 nM
inhibition [3]: -5.7%
GI50 (HT): 1.74 nM
GI50 (SUP-B15): 24.3 nM
GI50 (A-427): > 1000 nM
GI50 (SNU-5): 52.4 nM
GI50 (MKN-1): > 1000 nM
GI50 (DMS-114): 5.5 nM
GI50 (ZR-75-1): 138 nM
GI50 (NCI-H520): > 1000 nM
GI50 [14]: 21 nM
inhibition [15]: -9.3%
GI50 (CWR22R): 37.7 nM
GI50 (HCC1143): > 1000 nM
GI50 [16]: 26 nM
GI50 (Caov-3 cell line): > 1000 nM
inhibition [17]: -9.8%
GI50 [18]: > 1000 nM
GI50 (MDA-MB-415): 24.7 nM
